Experimental data: patent publication US4678775A, “Method of controlling pests” (priority 1984, dated 1987)
Like-named read-outs stand apart in the source and are kept apart here.

Experiments:
[1] = system: octopamine-sensitive adenylate cyclase; test: Activation of octopamine-sensitive adenylate cyclase, firefly light organ broken cell preparation; type: biochemical, Photinus pyralis
[2] = system: tobacco hornworms (Manducca sexta); test: In vivo leaf test (antifeeding) on tomato leaves with tobacco hornworm larvae; conditions: for effect of addition of IBMX on antifeeding / pesticidal activity: with PDE inhibitor IBMX
[3] = system: adenylate cyclase in nerve cord of tobacco hornworm; test: Adenylate cyclase activation in broken cell preparations of tobacco hornworm nerve cord; type: biochemical, tobacco hornworm (Manducca sexta); conditions: FIG. 1
Experimental: Otherwise, the procedure is identical to that described above.
The tissue is homogenized (usually 15 mg/ml) as above in 6 mM Tris maleate, pH 7.4. […] This is done to cancel out the effects of dopamine and serotonin receptors which are usually present in nerve cord.
As detailed previously, the adenylate cyclase assay, either in the firefly or in other insect pest, is also used to identify a direct stimulator of adenylate cyclase.

[4] = system: cyclic AMP in intact nerve cords of tobacco hornworms; test: Cyclic AMP content of intact tobacco hornworm nerve cords; type: cell-based; conditions: 5 minutes
Experimental: After 5 minutes, the intact nerve cord was quickly treated to release all cyclic AMP which was present within the tissue.

[5] = Table 2, clonidines, N.A. = no activity
[6] = Table 1, ratio greater than 1 = better than (±)-p-octopamine
[7] = Table 1, maximal activation as % of that by (±)-p-octopamine, N.A. = No Activity
[8] = Table 5, agonist 1 gm/100 ml, IBMX 0.1 g/100 ml
[9] = Table 5, agonist 1 gm/100 ml, No PDE Inhibitor
[10] = Table 5, agonist 10^-1 gm/100 ml, IBMX 0.1 g/100 ml
[11] = Table 5, agonist 10^-1 gm/100 ml, No PDE Inhibitor
[12] = Table 5, agonist 10^-2 gm/100 ml, IBMX 0.1 g/100 ml
[13] = Table 5, agonist 10^-2 gm/100 ml, No PDE Inhibitor
[14] = Table 4, agonist 10^-1 gm/100 ml, No PDE Inhibitor
[15] = Table 4, agonist 10^-2 gm/100 ml, No PDE Inhibitor

## Cc1cc(C)c(N=C2NCCN2)c(C)c1 [NC 13]
[1]
  octopamine potency ratio: 4.3
[1]; Table 2, clonidines
  Ka ratio to octopamine: 4.3
[1]; [5]
  Vmax (% OCT): 112 % OCT

## NCCc1ccc(O)cc1 [tyramine, reference compound]
[1]; [6]
  Ka^oct/Ka^(1) ratio (column head is drawing 15): 0.15

## COc1ccc(CCN)cc1 [p-methoxyphenylethylamine, reference compound]
[1]; [7]
  Vmax (% OCT): 6 ± 3 % OCT
[1]; [6]
  Ka^oct/Ka^(1) ratio (column head is drawing 15): 0.10

## Clc1ccc(N=C2NCCN2)c(Cl)c1 [NC 8]
[1]
  octopamine potency ratio: 3.7
[1]; Table 2, clonidines
  Ka ratio to octopamine: 3.7
[1]; [5]
  Vmax (% OCT): 47 % OCT

## CNCCc1ccc(O)c(O)c1 [Nmethyldopamine, reference compound]
[1]; [6]
  Ka^oct/Ka^(1) ratio (column head is drawing 15): 0.19

## Cc1ccc(N=C2NCCN2)c(C)c1 [NC 9]
[1]
  octopamine potency ratio: 5.1
[1]; Table 2, clonidines
  Ka ratio to octopamine: 5.1
[1]; [5]
  Vmax (% OCT): 78 % OCT

## Cc1cccc(C)c1N=C1NCCN1 [NC 4]
[1]; Table 2, clonidines
  Ka ratio to octopamine: 0.41
[1]; [5]
  Vmax (% OCT): 80 % OCT

## c1ccc(N=C2NCCN2)cc1 [NC 10]
[2]; [8]
  % Leaf Remaining: 15%
[2]; [9]
  % Leaf Remaining: 5%
[2]; [10]
  % Leaf Remaining: 13%
[2]; [11]
  % Leaf Remaining: 5%
[2]; [12]
  % Leaf Remaining: 15%
[2]; [13]
  % Leaf Remaining: 5%
[2]; Table 5, agonist 10^-3 gm/100 ml, IBMX 0.1 g/100 ml
  % Leaf Remaining: 12%
[2]; Table 5, agonist 10^-3 gm/100 ml, No PDE Inhibitor
  % Leaf Remaining: 5%
[2]; compound itself, in words
  antifeeding activity: lacked antifeeding activity both in the absence or presence of the PDE inhibitor

## NC[C@@H](O)c1ccc(O)cc1 [(+)-p-octopamine, reference compound]
[1]; [7]
  Vmax (% OCT): 81 ± 1 % OCT

## CN(C)c1cc(Cl)c(N=C2NCCN2)c(Cl)c1 [NC 15]
[1]; Table 2, clonidines
  Ka ratio to octopamine: 1.9
[1]; [5]
  Vmax (% OCT): 38 % OCT

## CC(N)Cc1ccc(O)cc1 (racemic) [(±)-p-hydroxyamphetamine, reference compound]
[1]
  Ka^oct/Ka^(1) ratio (column head is drawing 15): < 0.05
[1]; [7]
  Vmax (% OCT): 8 ± 3 % OCT

## CNC(C)C(O)c1ccc(O)cc1 (racemic) [(±)-α-methylsynephrine, reference compound]
[1]; [7]
  Vmax (% OCT): 7 ± 2 % OCT
[1]; [6]
  Ka^oct/Ka^(1) ratio (column head is drawing 15): < 0.01

## Clc1cc(Cl)c(N=C2NCCN2)c(Cl)c1 [NC 11]
[1]; Table 2, clonidines
  Ka ratio to octopamine: 1.9
[1]; [5]
  Vmax (% OCT): 60 % OCT

## NCCc1ccccc1 [β-phenylethylamine, reference compound]
[1]
  Ka^oct/Ka^(1) ratio (column head is drawing 15): 0.03

## CC(N)C(O)c1ccccc1 (racemic) [(±)-norephedrine, reference compound]
[1]
  Ka^oct/Ka^(1) ratio (column head is drawing 15): < 0.09
[1]; [7]
  Vmax (% OCT): 8 ± 1 % OCT

## CN(C)CC(O)c1ccc(O)cc1 (racemic) [(±)-N,Ndimethyloctopamine, reference compound]
[1]; [6]
  Ka^oct/Ka^(1) ratio (column head is drawing 15): 0.9

## CNCC(O)c1ccc(O)cc1 (racemic) [(±)-Nmethyloctopamine]
[1]
  Ka^oct/Ka^(1) ratio (column head is drawing 15): 1.8
[2]; Table 4, agonist 1 gm/100 ml, IBMX 0.1 g/100 ml
  % Leaf Remaining: 90%
[2]; Table 4, agonist 1 gm/100 ml, No PDE Inhibitor
  % Leaf Remaining: 30%
[2]; Table 4, agonist 10^-1 gm/100 ml, IBMX 0.1 g/100 ml
  % Leaf Remaining: 55%
[2]; [14]
  % Leaf Remaining: < 5%
[2]; Table 4, agonist 10^-2 gm/100 ml, IBMX 0.1 g/100 ml
  % Leaf Remaining: 42%
[2]; [15]
  % Leaf Remaining: < 5%

## CNC[C@H](O)c1ccc(O)c(O)c1 [(-)-epinephrine, reference compound]
[1]
  Ka^oct/Ka^(1) ratio (column head is drawing 15): 0.20

## Clc1cc(Cl)c(N=C2NCCN2)cc1Cl [NC 3]
[1]
  octopamine potency ratio: 3.0
[1]; Table 2, clonidines
  Ka ratio to octopamine: 2.8
[1]; [5]
  Vmax (% OCT): 80 % OCT

## Nc1cc(Cl)c(N=C2NCCN2)c(Cl)c1 [NC 14]
[1]; Table 2, clonidines
  Ka ratio to octopamine: 0.7
[1]; [5]
  Vmax (% OCT): 29 % OCT

## NC[C@H](O)c1ccc(O)c(O)c1 [(-)-nonrepinephrine, reference compound]
[1]; [6]
  Ka^oct/Ka^(1) ratio (column head is drawing 15): 0.13

## Brc1cccc(Br)c1N=C1NCCN1 [NC 6]
[1]; Table 2, clonidines
  Ka ratio to octopamine: 2.1
[1]; [5]
  Vmax (% OCT): 35 % OCT

## CC(N)C(O)c1ccc(O)cc1 (racemic) [(±)-α-methyloctopamine, reference compound]
[1]; [7]
  Vmax (% OCT): 44 ± 2 % OCT
[1]; [6]
  Ka^oct/Ka^(1) ratio (column head is drawing 15): 0.05

## COc1cc(C(O)CN)ccc1O (racemic) [(±)-normetanephrine, reference compound]
[1]; [6]
  Ka^oct/Ka^(1) ratio (column head is drawing 15): 0.07

## Brc1ccc(N=C2NCCN2)cc1 [NC 12]
[1]; Table 2, clonidines
  Ka ratio to octopamine: 3.0
[1]; [5]
  Vmax (% OCT): 34 % OCT

## Clc1cccc(Cl)c1N=C1NCCN1 [clonidine, reference compound]
[1]
  Ka ratio to octopamine: 0.95
  octopamine potency ratio: 0.9
[1]; light organ homogenate
  Vmax (% OCT): 35 % OCT
  Vmax, % that of octopamine: 35%
[2]; [8]
  % Leaf Remaining: 63%
[2]; [9]
  % Leaf Remaining: 65%
[2]; [10]
  % Leaf Remaining: 55%
[2]; [11]
  % Leaf Remaining: 20%
[2]; [12]
  % Leaf Remaining: 55%
[2]; [13]
  % Leaf Remaining: 5%
[2]
  effect of addition of IBMX on antifeeding / pesticidal activity: substantial increases in the potency

## NCCc1ccc(O)c(O)c1 [dopamine, reference compound]
[1]; [7]
  Vmax (% OCT): 4 ± 1 % OCT
[1]; [6]
  Ka^oct/Ka^(1) ratio (column head is drawing 15): 0.26

## NCC(O)c1cccc(O)c1 (racemic) [(±)-m-octopamine, reference compound]
[1]; [7]
  Vmax (% OCT): 9 ± 1 % OCT
[1]; [6]
  Ka^oct/Ka^(1) ratio (column head is drawing 15): 0.1
[2]; no IBMX
  pesticidal activity: much less pesticidal activity than p-octopamine

## CNC[C@H](O)c1cccc(O)c1 [(-)-phenylephrine, reference compound]
[1]; [6]
  Ka^oct/Ka^(1) ratio (column head is drawing 15): < 0.2

## NCC(O)c1ccccc1O (racemic) [(±)-o-octopamine, reference compound]
[1]; [6]
  Ka^oct/Ka^(1) ratio (column head is drawing 15): 0.05

## Nc1ncnc2c1nc(Sc1ccc(Cl)cc1)n2[C@@H]1O[C@@H]2COP(=O)(O)O[C@H]2[C@H]1O [p-Cl-phenylthio cyclic AMP, 8-p-chlorophenylthio-cyclic AMP, reference compound]
[2]; concentration of 1%, absence of IBMX
  antifeeding activity: showed antifeeding activity
[2]
  effect of addition of IBMX on antifeeding / pesticidal activity: increased by addition of IBMX

## NCC(O)c1ccc(F)cc1 (stereo not shown) [p-fluoro-phenylethanolamine]
[2]; [14]
  % Leaf Remaining: < 5%
[2]; [15]
  % Leaf Remaining: < 5%
[2]; Table 4, agonist 10^-3 gm/100 ml, IBMX 0.1 g/100 ml
  % Leaf Remaining: 50%
[2]; Table 4, agonist 10^-3 gm/100 ml, No PDE Inhibitor
  % Leaf Remaining: < 5%

## Cc1cc(Cl)ccc1N=CN [DDCDM, di-demethylchlordimeform, reference compound]
[3]
  activation of adenylate cyclase in nerve cord: potent activators
[2]; based on the EC50 of the octopamine agonist, alone or +IBMX
  rank order antifeeding effectiveness: DDCDM+IBMX=NC7+IBMX>Octopamine+IBMX=DDCDM alone>NC7 alone>octopamine alone
[4]; +0.1 mM IBMX
  Cyclic AMP Content (Fold-increase over Control): 11.1 ± 2.7 Fold-increase over Control
[4]; -IBMX
  Cyclic AMP Content (Fold-increase over Control): 5.4 ± 3.8 Fold-increase over Control

## NCC(O)c1ccc(O)c(Cl)c1 (stereo not shown) [m-chloro-octopamine]
[1]; [6]
  Ka^oct/Ka^(1) ratio (column head is drawing 15): 0.28

## CN(CCCl)c1cc(Cl)c(N=C2NCCN2)c(Cl)c1 [NC 16]
[1]; Table 2, clonidines
  Ka ratio to octopamine: 4.8
[1]; [5]
  Vmax (% OCT): 6 % OCT

## Clc1ccc(Cl)c(N=C2NCCN2)c1 [NC 2]
[1]; Table 2, clonidines
  Ka ratio to octopamine: 1.1
[1]; [5]
  Vmax (% OCT): 9 % OCT
